ChEMBL document CHEMBL3991943, “Pharmaceutical formulations comprising salts of a protein kinase inhibitor and methods of using same” (2013)

Experiments:
[1] = system: Mus musculus; assay: Toxicity in athymic nude mouse xenografted with human HT-29 cells assessed as overt toxicity at 10 to 20 mg/kg, ip qd administered 5 days for 2 weeks; type: organism-based; conditions: in vivo
[2] = system: Rattus norvegicus; assay: Acute toxicity in rat assessed as mortality at 10 mg/kg, iv administered for 30 mins measured post dose; type: organism-based; conditions: in vivo, 0.5 h
[3] = system: Canis familiaris; assay: Acute toxicity in Beagle dog assessed as animal appearance at 0.625 to 20 mg/kg, iv administered with 48 to 96 hrs between dose escalations with exception of 11 days between dose 5 and 6 measured after doses 1 through 5 and prior to dose 6; type: organism-based, Canis lupus familiaris; conditions: in vivo
[4] = system: Rattus norvegicus; assay: Acute toxicity in rat assessed as recumbency at 10 mg/kg, iv administered for 30 mins measured after 1 hr post dose; type: organism-based; conditions: in vivo
[5] = system: Canis familiaris; assay: Acute toxicity in Beagle dog assessed as defecation at 0.625 to 20 mg/kg, iv dosed with 48 to 96 hrs between dose escalations with exception of 11 days between dose 5 and 6 measured during dose 6 administration; type: organism-based, Canis lupus familiaris; conditions: in vivo
[6] = system: Rattus norvegicus; assay: Acute toxicity in rat assessed as induction of red urine excretion at 10 mg/kg, iv administered for 30 mins measured immediately, 10 mins and 1 hr post dose; type: organism-based; conditions: in vivo
[7] = system: Rattus norvegicus; assay: Acute toxicity in rat assessed as loss of body weight at 0.625 to 10 mg/kg, iv administered as single dose for 30 mins measured on day 2; type: organism-based; conditions: in vivo, 0.5 h
[8] = system: Rattus norvegicus; assay: Acute toxicity in rat assessed as labored breathing at 10 mg/kg, iv administered for 30 mins measured immediately and 10 mins post dose; type: organism-based; conditions: in vivo
[9] = system: Canis familiaris; assay: Acute toxicity in Beagle dog assessed as anxiety at 0.625 to 20 mg/kg, iv dosed with 48 to 96 hrs between dose escalations with exception of 11 days between dose 5 and 6 measured during dose 6 administration; type: organism-based, Canis lupus familiaris; conditions: in vivo
[10] = system: OVCAR-3; assay: Induction of DNA damage in human OVCAR3 cells assessed as increase in gamma-H2AX levels at 10 uM in presence of topotecan; type: functional
[11] = system: Canis familiaris; assay: Acute toxicity in Beagle dog assessed as weight gain at 0.625 to 20 mg/kg, iv dosed with 48 to 96 hrs between dose escalations with exception of 11 days between dose 5 and 6 measured during course of 21 study days; type: organism-based, Canis lupus familiaris; conditions: in vivo
[12] = system: Canis familiaris; assay: Acute toxicity in Beagle dog assessed as thrombus formation in veins at 10 mg/kg, iv administered for 48 hrs followed by 20 mg/kg, iv administered for 3 days measured post dose; type: organism-based, Canis lupus familiaris; conditions: in vivo
[13] = system: Rattus norvegicus; assay: Acute toxicity in rat assessed as red urine at 0.625 to 10 mg/kg, iv administered as single dose for 30 mins measured immediately, 10 mins and 1 hr post dose; type: organism-based; conditions: in vivo
[14] = system: Canis familiaris; assay: Acute toxicity in Beagle dog assessed as facial swelling at 0.625 to 20 mg/kg, iv dosed with 48 to 96 hrs between dose escalations with exception of 11 days between dose 5 and 6 measured during dose 6 administration; type: organism-based, Canis lupus familiaris; conditions: in vivo
[15] = system: Rattus norvegicus; assay: Acute toxicity in rat assessed as dark red mottled lungs at 10 mg/kg, iv administered for 30 mins measured post dose; type: organism-based; conditions: in vivo, 0.5 h
[16] = system: Canis familiaris; assay: Acute toxicity in Beagle dog at 20 mg/kg, iv; type: organism-based, Canis lupus familiaris; conditions: in vivo
[17] = system: Rattus norvegicus; assay: Acute toxicity in rat assessed as red tinged urine at 10 mg/kg, iv administered for 30 mins measured post dose; type: organism-based; conditions: in vivo, 0.5 h
[18] = system: Canis familiaris; assay: Acute toxicity in Beagle dog assessed as depression at 0.625 to 20 mg/kg, iv dosed with 48 to 96 hrs between dose escalations with exception of 11 days between dose 5 and 6 measured during dose 6 administration; type: organism-based, Canis lupus familiaris; conditions: in vivo
[19] = system: Rattus norvegicus; assay: Acute toxicity in rat assessed as lethargy at 10 mg/kg, iv administered for 30 mins measured at 1 hr post dose; type: organism-based; conditions: in vivo
[20] = system: Mus musculus; assay: Toxicity in athymic nude mouse xenografted with human A549 cells assessed as loss of body weight at 50 to 150 mg/kg, po qd administered 5 days for 3 weeks; type: organism-based; conditions: in vivo
[21] = system: Rattus norvegicus; assay: Acute toxicity in rat assessed as lethargy at 10 mg/kg, iv administered for 30 mins measured after 1 hr post dose; type: organism-based; conditions: in vivo
[22] = system: Canis familiaris; assay: Acute toxicity in Beagle dog assessed as weight gain at 10 mg/kg, iv administered for 48 hrs followed by 20 mg/kg, iv administered for 3 days measured everyday after second dose; type: organism-based, Canis lupus familiaris; conditions: in vivo
[23] = system: Rattus norvegicus; assay: Acute toxicity in rat assessed as bright red lungs at 10 mg/kg, iv administered as single dose for 30 mins measured on day 4; type: organism-based; conditions: in vivo, 0.5 h
[24] = system: Rattus norvegicus; assay: Acute toxicity in rat assessed as normal appearance at 0.625 to 10 mg/kg, iv administered as single dose for 30 mins measured on day 4; type: organism-based; conditions: in vivo, 0.5 h
[25] = system: Canis familiaris; assay: Acute toxicity in female Beagle dog assessed as mortality at 0.625 to 20 mg/kg, iv measured after 5 mins of completion of dose 6 administration; type: organism-based, Canis lupus familiaris; conditions: in vivo
[26] = system: Canis familiaris; assay: Acute toxicity in female Beagle dog assessed as meningeal vessel congestion at 0.625 to 20 mg/kg, iv administered with 48 to 96 hrs between dose escalations with exception of 11 days between dose 5 and 6 measured after 21 days; type: organism-based, Canis lupus familiaris; conditions: in vivo, 504 h
[27] = system: Rattus norvegicus; assay: Acute toxicity in rat assessed as normal appearance at 10 mg/kg, iv administered for 30 mins measured on day 4; type: organism-based; conditions: in vivo, 0.5 h
[28] = system: Mus musculus; assay: Toxicity in athymic nude mouse xenografted with human TT cells at 7.5 to 15 mg/kg, ip qd administered for 2 weeks; type: organism-based; conditions: in vivo, 336 h
[29] = system: Canis familiaris; assay: Acute toxicity in Beagle dog assessed as adverse events at 10 mg/kg, iv administered for 48 hrs followed by 20 mg/kg, iv administered for 3 days measured everyday after second dose; type: organism-based, Canis lupus familiaris; conditions: in vivo
[30] = system: A549; assay: Antitumor activity against human A549 cells xenografted in athymic nude mouse assessed as tumor growth at 10 mg/kg, po qd administered 5 days for 3 weeks measured on day 26 (reference value: 43 mm3/day); type: functional
[31] = system: Canis familiaris; assay: Acute toxicity in male Beagle dog assessed as adverse clinical signs at 10 mg/kg, iv; type: organism-based, Canis lupus familiaris; conditions: in vivo
[32] = system: Rattus norvegicus; assay: Acute toxicity in rat assessed as induction of red urine excretion at 10 mg/kg, iv administered for 30 mins measured after 1 hr post dose; type: organism-based; conditions: in vivo
[33] = system: Canis familiaris; assay: Acute toxicity in Beagle dog assessed as recumbency at 0.625 to 20 mg/kg, iv dosed with 48 to 96 hrs between dose escalations with exception of 11 days between dose 5 and 6 measured during dose 6 administration; type: organism-based, Canis lupus familiaris; conditions: in vivo
[34] = system: Rattus norvegicus; assay: Acute toxicity in rat assessed as wobbly appearance at 0.625 to 10 mg/kg, iv administered as single dose for 30 mins measured immediately, 10 mins and 1 hr post dose; type: organism-based; conditions: in vivo
[35] = system: Canis familiaris; assay: Acute toxicity in female Beagle dog assessed as intestinal mucosal congestion at 0.625 to 20 mg/kg, iv administered with 48 to 96 hrs between dose escalations with exception of 11 days between dose 5 and 6 measured after 21 days; type: organism-based, Canis lupus familiaris; conditions: in vivo, 504 h
[36] = system: Canis familiaris; assay: Acute toxicity in Beagle dog assessed as urination at 0.625 to 20 mg/kg, iv dosed with 48 to 96 hrs between dose escalations with exception of 11 days between dose 5 and 6 measured during dose 6 administration; type: organism-based, Canis lupus familiaris; conditions: in vivo
[37] = system: Mus musculus; assay: Toxicity in athymic nude mouse xenografted with human HT-29 cells assessed as loss of body weight at 10 to 20 mg/kg, ip qd administered 5 days for 2 weeks; type: organism-based; conditions: in vivo
[38] = system: Rattus norvegicus; assay: Acute toxicity in rat assessed as recumbency at 10 mg/kg, iv administered for 30 mins measured immediately and 10 mins post dose; type: organism-based; conditions: in vivo
[39] = system: Canis familiaris; assay: Acute toxicity in male Beagle dog assessed as animal appearance at 0.625 to 20 mg/kg, iv dosed with 48 to 96 hrs between dose escalations with exception of 11 days between dose 5 and 6 measured following day after dose 6 administration; type: organism-based, Canis lupus familiaris; conditions: in vivo
[40] = system: Canis familiaris; assay: Acute toxicity in male Beagle dog assessed as mild venous congestion in meningeal vein between brain hemispheres and in venous sinus on cranial floor at 10 mg/kg, iv administered for 48 hrs followed by 20 mg/kg, iv administered for 3 days measured post dose; type: organism-based, Canis lupus familiaris; conditions: in vivo
[41] = system: Mus musculus; assay: Toxicity in athymic nude mouse xenografted with human A549 cells assessed as loss of body weight at 10 mg/kg, po qd administered 5 days for 3 weeks; type: organism-based; conditions: in vivo

SMILES: S=C(NCc1ccc2c(c1)OCO2)N1CCN(c2ncnc3c2oc2ccccc23)CC1 [AMUVATINIB]
- Activity [1]: Toxic
- Activity [2]: Toxic
- Activity [3]: Non-Toxic
- Activity [4]: Non-Toxic
- Activity [5]: Toxic
- Activity [6]: Toxic
- Activity [7]: Toxic
- Activity [8]: Toxic
- Activity [9]: Toxic
- Activity [10]: 103%
- Activity [11]: Toxic
- Activity [12]: Toxic
- Activity [13]: Toxic
- Activity [14]: Toxic
- Activity [15]: Toxic
- Activity [16]: Toxic
- Activity [17]: Toxic
- Activity [18]: Toxic
- Activity [19]: Toxic
- Activity [20]: Non-Toxic
- Activity [21]: Non-Toxic
- Activity [22]: Toxic
- Activity [23]: Toxic
- Activity [24]: Non-Toxic
- Activity [25]: Toxic
- Activity [26]: Toxic
- Activity [27]: Non-Toxic
- Activity [28]: Non-Toxic
- Activity [29]: Toxic
- Activity [30]: 19.5 mm3/day
- Activity [31]: Non-Toxic
- Activity [32]: Non-Toxic
- Activity [33]: Toxic
- Activity [34]: Toxic
- Activity [35]: Toxic
- Activity [36]: Toxic
- Activity [37]: Non-Toxic
- Activity [38]: Toxic
- Activity [39]: Non-Toxic
- Activity [40]: Toxic

SMILES: O=c1[nH]cc(F)c(=O)[nH]1 [FLUOROURACIL]
- Activity [41]: Non-Toxic
